Legend:
[1] = system: Salmonella typhimurium; experiment: Antimutagenic activity in Salmonella Typhimurium T-98 assessed as inhibition of acetylaminofluorene-induced mutation at 75 ug/plate; type: functional, Salmonella enterica subsp. enterica serovar Typhimurium
[2] = system: Salmonella typhimurium; experiment: Antimutagenic activity in Salmonella Typhimurium assessed as inhibition of 2-aminoanthracene-induced mutation at 0.6 mg/plate; type: functional, Salmonella enterica subsp. enterica serovar Typhimurium
[3] = system: Salmonella typhimurium; experiment: Toxicity to Salmonella Typhimurium at 0.3 to 0.075 mg/plate; type: organism-based, Salmonella enterica subsp. enterica serovar Typhimurium; conditions: in vivo
[4] = system: Salmonella typhimurium; experiment: Antimutagenic activity in Salmonella Typhimurium T-98 assessed as inhibition of acetylaminofluorene-induced mutation at 300 ug/plate; type: functional, Salmonella enterica subsp. enterica serovar Typhimurium
[5] = system: Salmonella typhimurium; experiment: Antimutagenic activity in Salmonella Typhimurium assessed as inhibition of 2-aminoanthracene-induced mutation at 0.3 mg/plate; type: functional, Salmonella enterica subsp. enterica serovar Typhimurium
[6] = system: Salmonella typhimurium; experiment: Antimutagenic activity in Salmonella Typhimurium T-98 assessed as inhibition of 2-aminoanthracene-induced mutation at 75 ug/plate; type: functional, Salmonella enterica subsp. enterica serovar Typhimurium
[7] = system: Salmonella typhimurium; experiment: Antimutagenic activity in Salmonella Typhimurium T-98 assessed as inhibition of acetylaminofluorene-induced mutation at 37.5 ug/plate; type: functional, Salmonella enterica subsp. enterica serovar Typhimurium
[8] = system: Salmonella typhimurium; experiment: Antimutagenic activity in Salmonella Typhimurium T-100 assessed as inhibition of ethyl methanesulfonate-induced mutation at 75 ug/plate; type: functional, Salmonella enterica subsp. enterica serovar Typhimurium
[9] = system: Salmonella typhimurium; experiment: Antimutagenic activity in Salmonella Typhimurium T-98 assessed as inhibition of acetylaminofluorene-induced mutation at 150 ug/plate; type: functional, Salmonella enterica subsp. enterica serovar Typhimurium
[10] = system: Salmonella typhimurium; experiment: Antimutagenic activity in Salmonella Typhimurium T-100 assessed as inhibition of ethyl methanesulfonate-induced mutation at 37.5 ug/plate; type: functional, Salmonella enterica subsp. enterica serovar Typhimurium
[11] = system: Salmonella typhimurium; experiment: Antimutagenic activity in Salmonella Typhimurium T-98 assessed as inhibition of 2-aminoanthracene-induced mutation at 37.5 ug/plate; type: functional, Salmonella enterica subsp. enterica serovar Typhimurium
[12] = system: Salmonella typhimurium; experiment: Antimutagenic activity in Salmonella Typhimurium T-100 assessed as inhibition of ethyl methanesulfonate-induced mutation at 150 ug/plate; type: functional, Salmonella enterica subsp. enterica serovar Typhimurium
[13] = system: Salmonella typhimurium; experiment: Antimutagenic activity in Salmonella Typhimurium T-98 assessed as inhibition of 2-aminoanthracene-induced mutation at 150 ug/plate; type: functional, Salmonella enterica subsp. enterica serovar Typhimurium
[14] = system: Salmonella typhimurium; experiment: Antimutagenic activity in Salmonella Typhimurium T-98 assessed as inhibition of 2-aminoanthracene-induced mutation at 300 ug/plate; type: functional, Salmonella enterica subsp. enterica serovar Typhimurium
[15] = system: Salmonella typhimurium; experiment: Antimutagenic activity in Salmonella Typhimurium T-100 assessed as inhibition of ethyl methanesulfonate-induced mutation at 300 ug/plate; type: functional, Salmonella enterica subsp. enterica serovar Typhimurium
[16] = system: Salmonella typhimurium; experiment: Toxicity to Salmonella Typhimurium at 0.6 mg/plate; type: organism-based, Salmonella enterica subsp. enterica serovar Typhimurium; conditions: in vivo

Structure (SMILES) | inhibition (INH) [1] [%] | inhibition (INH) [2] [%] | Activity [3] | inhibition (INH) [4] [%] | inhibition (INH) [5] [%] | inhibition (INH) [6] [%] | inhibition (INH) [7] [%] | inhibition (INH) [8] [%] | inhibition (INH) [9] [%] | inhibition (INH) [10] [%] | inhibition (INH) [11] [%] | inhibition (INH) [12] [%] | inhibition (INH) [13] [%] | inhibition (INH) [14] [%] | inhibition (INH) [15] [%] | Activity [16]
C=CC(C)(C)c1cc(-c2coc3cc(O)cc(O)c3c2=O)c(O)cc1O [FREMONTIN] | 0 | 92 | Non-toxic | 0 | 92 | 0 | 0 | 90 | 0 | 58 | 65 | 81 | 24 | 93 | 87 | 
C=CC(C)(C)c1cc(-c2coc3cc(O)cc(O)c3c2=O)c(O)c(CC=C(C)C)c1O [FREMONTONE] | 3 |  | Non-toxic | 70 |  | 78 | 0 | 81 | 27 | 63 | 89 | 86 | 17 | 93 | 94 | Non-toxic

From ChEMBL document CHEMBL1147294, “Plant antimutagenic agents, 5. Isolation and structure of two new isoflavones, fremontin and fremontone from Psorothamnus fremontii” (J Nat Prod, 1989)
